Test results reported in US9920383B2, “Active substances for increasing the stress defense in plants to abiotic stress, and methods of finding them” (Bayer Intellectual Property GMBH, priority 2005, dated 2018).

Experiments:
Assay type in all cases: in vivo, maize cv. Lorenzo
maize plants = experiment: Drought stress experiment with maize plants, seed dressing with active substance; details: for Relative dry matter [%]: relative to control group 2 (−S/−D)
Method: Maize seeds cv. Lorenzo were dressed with the compound 4-cyclopropylamino-carbonyl-N-(2-methoxybenzoyl)benzenesulfonamide (=VIII-3). To this end, 10 g of seeds were incubated with 20 mg of active substance dissolved in 2 ml of methylene chloride, with gentle shaking, until the solvent had evaporated (approx. 30 minutes). The seeds of the control group were only dressed with solvent. Thereafter, the treated seeds were placed into pots with compost (diameter 10 cm, in each case 10 seeds per pot), and the maize seedlings were raised for 10 days in a controlled-environment chamber under defined light, moisture and temperature conditions [white light, long day (16 hours light, 8 hours dark), 70% atmospheric humidity, 24° C.]. In each case 2×10 pots were used for the control groups and for the drought stress experiment. While the plants were raised, they were watered from below for 20 minutes every 2 days by raising the water level in a tray. 10 days after the seeds had germinated, the maize plants were exposed to the drought stress. To this end, the plants of control group 1 (without dressing with active substance) and of the test group (with dressing with active substance) were only irrigated every 7 days as described above. In the case of the plants of control group 2 (without dressing with active substance) and of the test group 2 (with dressing with active substance), the normal irrigation regime was reclaimed. After 3 weeks of drought stress conditions, the experiment was evaluated as follows. The aerial plant parts were cut off and dried overnight at 50° C. On the next day, the foliar biomass was determined in [g] (dry matter) per pot.
The data were averaged over the in each case 10 pots of the plant group. The numerical values shown in table 1 are relative values in [%] relative to the data obtained with the control group 2 (without dressing with active substance, normal irrigation regime).

[1] = tested on: Zm.3040.1.S1_at uricase II (E.C.1.7.3.3); nodule specific uricase; experiment: Gene expression profiling (maize genome array), heat stress; details: vs unstressed solvent-dressed control
Method: (§1) Maize seeds cv. Lorenzo were dressed as described in example 1 with the compound VIII-3 (=4-cyclopropylaminocarbonyl-N-(2-methoxybenzoyl)benzenesulfonamide) or with solvent. The plants were raised for 10 days in a controlled-environment chamber (conditions: see example 1).
(§2) Thereafter, the plants were exposed to the following stress conditions: • (1) Heat stress: 6 h at 45° C. • (2) Drought stress: 7 days without irrigation, 24° C.
(§3) The control plants of the specific experimental group were kept under the standard conditions described in example 1 (temperature, irrigation).
(§4) After the stress treatment, the leaves of the stressed plants and of the unstressed control plants were harvested, shock-frozen in liquid nitrogen and stored at −80° C. until processed. All experiments were carried out in replications of in each case 2 pots.
(§5) The labeled RNA probes for the DNA chip hybridization were prepared as described in the protocols (Expression Analysis. Technical Manual) from Affymetrix (Affymetrix Inc., 3380 Central Expressway, Santa Clara, Calif., USA). First, total RNA was isolated from in each case 500 mg of the harvested leaves. In each case 10 μg of total RNA were used for the cDNA first- and second-strand synthesis. The cDNA was amplified with T7 polymerase and simultaneously labeled with biotin-UTP. In each case 20 μg of this biotinylated […] were employed for the hybridization of the maize genome array from Affymetrix. This DNA microarray contains DNA sequences whose totality represents 13339 genes. Thereafter, the DNA microarrays were washed in the Affymetrix Fluidics Station, stained with streptavidin/phycoerythrin (Molecular Probes, P/N S-866) and scanned with the appropriate Agilent Laser Scanner (Agilent Gene Array Scanner). The fluorescence data obtained were analyzed using Affymetrix's Microarray Suite 5 software. After the quality assurance had been performed, all DNA chip analyses were stored in a database. To determine relevant expression values (induction factors, repression factors), the absolute expression values of the genes from the respective stress experiments were compared with the values of the respective control experiments (i.e. without abiotic stress and solvent-dressing only), based on the scoring function predetermined by the Affymetrix software. The resulting 4 expression values per gene were averaged by calculating the median value. These median values are shown in the results tables as induction factors. Similarity comparisons of expression profiles of various experiments and cluster analyses were carried out using the “genedata expressionist” software from Genedata (Genedata, Maulbeerstr. 46, CH-4016 Basel, Switzerland).
(§6) The analysis of the expression profiles specifically searched for genes which are induced by the test substances only in conjunction with abiotic stress, but not by the substances or by stress alone. Such genes can be considered as indicators for additional anti-stress effects of the substances which exceed the known safener effect. The induction patterns of the indicator genes described permit the targeted finding of active substances for increasing the abiotic stress tolerance in crop plants. • a) Under heat stress conditions, i.e. the tested maize plants (dressed with 2 mg a.i. 4-cyclopropylaminocarbonyl-N-(2-methoxybenzoyl)benzenesulfonamide/g seeds) were exposed to a temperature of 45° C. for 6 hours 7 days after germination.
(§7) • Condition A: heat stress (6 hours, 45° C.) • Condition B: Seeds dressed with 4-cyclopropylaminocarbonyl-N-(2-methoxybenzoyl)benzenesulfonamide (VIII-3)/NO heat stress • Condition C: Seeds dressed with 4-cyclopropylaminocarbonyl-N-(2-methoxybenzoyl)benzenesulfonamide (VIII-3)+heat stress (6 hours, 45° C.).

[2] = tested on: Zm.13498.1.S1_at: membrane protein; experiment: as above; details: vs unstressed solvent-dressed control
Method: as §1, §2, §3, §4, §5, §6, §7

[3] = tested on: Zm.4274.1.S1_at: cytochrome P450; experiment: as above; details: vs unstressed solvent-dressed control
Method: as §1, §2, §3, §4, §5, §6, §7

[4] = tested on: Zm.11840.1.A1_at: putative N-carbamyl-L-amino acid amidohydrolase; experiment: as above; details: vs unstressed solvent-dressed control
Method: as §1, §2, §3, §4, §5, §6, §7

[5] = tested on: Zm12587.1.S1.s_at: glycosyltransferase; experiment: as above; details: vs unstressed solvent-dressed control
Method: as §1, §2, §3, §4, §5, §6, §7

[6] = tested on: Zm18994.2.A1_at: putative serine transferase; experiment: as above; details: vs unstressed solvent-dressed control
Method: as §1, §2, §3, §4, §5, §6, §7

[7] = seeds dressed with VIII-3 (2 mg a.i./g seeds), NO heat stress
[8] = seeds dressed with VIII-3 + heat stress (6 hours, 45° C.)

## COc1ccccc1C(=O)NS(=O)(=O)c1ccc(C(=O)NC2CC2)cc1 [VIII-3, 4-cyclopropylaminocarbonyl-N-(2-methoxybenzoyl)benzenesulfonamide]
Maize plants; +S/+D: seeds dressed (20 mg per 10 g seeds), 3 weeks drought stress
  Relative dry matter [%]: 80%
Maize plants; +S/−D: seeds dressed, normal irrigation (no drought stress)
  Relative dry matter [%]: 100%
Maize plants; under drought stress (control group 1 vs test group 1)
  average foliar biomass (dry matter) over the undressed control plant: significantly increased
[1]; [7]
  induction factor Zm.3040.1.S1_at, Condition B: 1.33
[1]; [8]
  induction factor Zm.3040.1.S1_at, Condition C: 2.48
[2]; [7]
  induction factor Zm.13498.1.S1_at, Condition B: 1.73
[2]; [8]
  induction factor Zm.13498.1.S1_at, Condition C: 4.45
[3]; [7]
  induction factor Zm.4274.1.S1_at, Condition B: 1.22
[3]; [8]
  induction factor Zm.4274.1.S1_at, Condition C: 1.93
[4]; [7]
  induction factor Zm.11840.1.A1_at, Condition B: 1.75
[4]; [8]
  induction factor Zm.11840.1.A1_at, Condition C: 4.10
[5]; [7]
  induction factor Zm12587.1.S1.s_at, Condition B: 1.45
[5]; [8]
  induction factor Zm12587.1.S1.s_at, Condition C: 2.33
[6]; [7]
  induction factor Zm18994.2.A1_at, Condition B: 1.46
[6]; [8]
  induction factor Zm18994.2.A1_at, Condition C: 2.66
